Measurements: patent publication US9943566B2, “NF-κB inhibitor composition for skin health” (Geoffrey Brooks Consultants, LLC, priority 2016, dated 2018)

System: cultured human fibroblasts
Experiment: DNA microarray analysis of gene expression in cultured human fibroblasts treated with peptides
Format: cell-based
Settings: for Peptide Fluorescent Intensity: TGFB / Peptide Fluorescent Intensity: TGFBR1 / Peptide Fluorescent Intensity: TGFBR3: TGF Family Molecules
Description: Expression levels for a variety of different genes treated with N-M-A-N-A-K (SEQ ID NO: 1) and A-N-V-A-E-N-A (SEQ ID NO: 2) were determined using DNA microarray analysis of cultured human fibroblasts at BioInnovation Laboratories, Inc., Lakewood, Colo.
The microarrays were scanned with an Axon GenePix 4100A Scanner with the scanning resolution set to 10 μm and analyzed with GenePix Pro software. During the initial scan the PMT gains for the scanner were adjusted such that the Cy5/Cy3 image count ratios were between 0.9 and 1.1.
To derive the standard curve for the assay, the relative fluorescent units versus the known RNA concentrations in μg/ml for the standards were plotted and subjected to regression analysis to establish the line that best fit the data points. Mean RFU values for the test materials and untreated samples were used to estimate the amount of RNA present in each sample.
Because the level of gene expression is related to the fluorescence intensity of the probed gene marker on the microarray, and since it is possible to have differences in labeling efficiency when making the Cy3 and Cy5 probes, it is essential to normalize the fluorescence measurements between the two respective dyes before examining changes in gene expression. As a result, fluorescence intensities for the microarrays were subjected to global normalization. The total fluorescent signal for both dyes was normalized with a correction factor so that the ratio of total intensities for both dyes was equal to one.
The resulting normalized total fluorescent signals for peptides, N-M-A-N-A-K (SEQ ID NO: 1) and A-N-V-A-E-N-A (SEQ ID NO: 2) with a variety of gene samples are shown in Table 1.

[1] = 10 ppm peptide, Additional Genes
[2] = 10 ppm peptide, Anti-Inflammatory
[3] = 10 ppm peptide, Extracellular Matrix Genes Regulated by TGF Beta
[4] = 10 ppm peptide, Genes that Regulate Wound Healing (regulated by TGF beta)
[5] = 10 ppm peptide, Molecules that Regulate TGF Beta Expression/Activity
[6] = 10 ppm peptide, TGF Beta Signaling Pathway Molecules

Q: How did the “number of anti-inflammatory genes upregulated (COX1, COX411, COX7C, COX8A, DEFB4, IL10RB, IL26, IL27, ILF2, ILDR1)” value (10 ppm peptide) turn out when “Asparagine-Methionine-Alanine-Asparagine-Alanine-Lysine (Asn-Met-Ala-Asn-Ala-Lys) [NMANAK]” was run?
A: ≥ 10

Q: What about the “Peptide Fluorescent Intensity: AQP3” value [1] of the same substance?
A: 3.294

Q: What about the “Peptide Fluorescent Intensity: EEF1A1 (cell growth)” value [1] of the same substance?
A: 6.301

Q: What about the “Peptide Fluorescent Intensity: EEF1A2 (cancer cell growth)” value [1] of the same substance?
A: 0.067

Q: What about the “Peptide Fluorescent Intensity: EEF1G (aminoacyl transferase - glutathione)” value [1] of the same substance?
A: 1.928

Q: And the “Peptide Fluorescent Intensity: LOX” value [1]?
A: 1.035

Q: And the “Peptide Fluorescent Intensity: OGG1” value [1]?
A: 1.176

Q: What about the “Peptide Fluorescent Intensity: PLOD” value [1] of the same substance?
A: 1.105

Q: And the “Peptide Fluorescent Intensity: PLOD2” value [1]?
A: 1.085

Q: What about the “Peptide Fluorescent Intensity: PLOD3” value [1] of the same substance?
A: 4.092

Q: What about the “Peptide Fluorescent Intensity: RAD23A” value [1] of the same substance?
A: 0.933

Q: What about the “Peptide Fluorescent Intensity: RAD23B” value [1] of the same substance?
A: 0.603

Q: And the “Peptide Fluorescent Intensity: SIRT1” value [1]?
A: 0.410

Q: What about the “Peptide Fluorescent Intensity: SIRT3” value [1] of the same substance?
A: 0.735

Q: And the “Peptide Fluorescent Intensity: SIRT 5” value [1]?
A: 1.482

Q: And the “Peptide Fluorescent Intensity: COX1” value [2]?
A: 2.645

Q: What about the “Peptide Fluorescent Intensity: COX7C” value [2] of the same substance?
A: 1.341

Q: What about the “Peptide Fluorescent Intensity: COX8A” value [2] of the same substance?
A: 1.803

Q: And the “Peptide Fluorescent Intensity: COX411” value [2]?
A: 2.067

Q: What about the “Peptide Fluorescent Intensity: DEFB4” value [2] of the same substance?
A: 4.798

Q: And the “Peptide Fluorescent Intensity: IL10RB” value [2]?
A: 1.889

Q: And the “Peptide Fluorescent Intensity: IL26” value [2]?
A: 2.036

Q: What about the “Peptide Fluorescent Intensity: IL27” value [2] of the same substance?
A: 2.257

Q: What about the “Peptide Fluorescent Intensity: ILDR1 (immunoglobin receptor)” value [2] of the same substance?
A: 1.546

Q: What about the “Peptide Fluorescent Intensity: ILF2” value [2] of the same substance?
A: 4.120

Q: What about the “Peptide Fluorescent Intensity: BMP7” value [3] of the same substance?
A: 2.000

Q: And the “Peptide Fluorescent Intensity: COL1A2” value [3]?
A: 3.992

Q: And the “Peptide Fluorescent Intensity: COL3A1” value [3]?
A: 2.047

Q: And the “Peptide Fluorescent Intensity: COL6A1” value [3]?
A: 3.446

Q: And the “Peptide Fluorescent Intensity: COL6A2” value [3]?
A: 1.705

Q: And the “Peptide Fluorescent Intensity: COL7” value [3]?
A: 1.080

Q: What about the “Peptide Fluorescent Intensity: CTGF” value [3] of the same substance?
A: 0.429

Q: What about the “Peptide Fluorescent Intensity: EGFR” value [3] of the same substance?
A: 1.159

Q: What about the “Peptide Fluorescent Intensity: ELA2A (elastase)” value [3] of the same substance?
A: 3.148

Q: And the “Peptide Fluorescent Intensity: ELN” value [3]?
A: 0.773

Q: What about the “Peptide Fluorescent Intensity: FGF3 (fibroblast growth factor)” value [3] of the same substance?
A: 2.000

Q: And the “Peptide Fluorescent Intensity: MMP1” value [3]?
A: 1.164

Q: What about the “Peptide Fluorescent Intensity: MMP2” value [3] of the same substance?
A: 0.785

Q: What about the “Peptide Fluorescent Intensity: PDGFR alpha subunit” value [3] of the same substance?
A: 1.608

Q: What about the “Peptide Fluorescent Intensity: TIMP1” value [3] of the same substance?
A: 4.057

Q: And the “Peptide Fluorescent Intensity: Tenascin (TNXB)” value [3]?
A: 1.752

Q: What about the “Peptide Fluorescent Intensity: FGF2” value [4] of the same substance?
A: 0.679

Q: And the “Peptide Fluorescent Intensity: VEGFA” value [4]?
A: 1.385

Q: What about the “Peptide Fluorescent Intensity: Activin A beta subunit (INHBB)” value [5] of the same substance?
A: 0.095

Q: And the “Peptide Fluorescent Intensity: BMP1” value [5]?
A: 0.837

Q: And the “Peptide Fluorescent Intensity: Follistatin (FST)” value [5]?
A: 0.665

Q: What about the “Peptide Fluorescent Intensity: Inhibin (INHA)” value [5] of the same substance?
A: 1.917

Q: And the “Peptide Fluorescent Intensity: LTBP (LTBP1)” value [5]?
A: 0.268

Q: And the “Peptide Fluorescent Intensity: YY1” value [5]?
A: 1.378

Q: What about the “Peptide Fluorescent Intensity: CBP (CREBBP)” value [6] of the same substance?
A: 0.743

Q: What about the “Peptide Fluorescent Intensity: SAR1A” value [6] of the same substance?
A: 1.632

Q: What about the “Peptide Fluorescent Intensity: SP1” value [6] of the same substance?
A: 0.932

Q: And the “Peptide Fluorescent Intensity: Smad1” value [6]?
A: 0.918

Q: What about the “Peptide Fluorescent Intensity: Smad2” value [6] of the same substance?
A: 0.857

Q: And the “Peptide Fluorescent Intensity: Smad3” value [6]?
A: 0.882

Q: What about the “Peptide Fluorescent Intensity: Smad4” value [6] of the same substance?
A: 0.454

Q: And the “Peptide Fluorescent Intensity: Smad6” value [6]?
A: 1.354

Q: And the “Peptide Fluorescent Intensity: Smad7” value [6]?
A: 1.160

Q: And the “Peptide Fluorescent Intensity: p38MAPK (MAPK14)” value [6]?
A: 1.057

Q: And the “Peptide Fluorescent Intensity: TGFB” value (10 ppm peptide)?
A: 1.224

Q: What about the “Peptide Fluorescent Intensity: TGFBR1” value (10 ppm peptide) of the same substance?
A: 0.373

Q: What about the “Peptide Fluorescent Intensity: TGFBR3” value (10 ppm peptide) of the same substance?
A: 1.229

Q: What about the “effect on AQP3 (aquaporin3) and EEf1G (glutathione) genes” value (10 ppm peptide, in words) of the same substance?
A: upregulated

Q: What about the “effect on genes expressing extra-cellular matrix components, including collagen production genes COL1A2, COL3A1, COL6A1 and COL6A2” value (10 ppm peptide, in words) of the same substance?
A: upregulation

Q: What about the “effect on genes that control TGF-β expression (YY1, INHA)” value (10 ppm peptide, in words) of the same substance?
A: upregulating

Q: ANVAENA (TGF-beta mimic) was tested. Which “Peptide Fluorescent Intensity: LOX” value [1] did it give?
A: 0.974

Q: And the “Peptide Fluorescent Intensity: OGG1” value [1]?
A: 1.364

Q: What about the “Peptide Fluorescent Intensity: PLOD” value [1] of the same substance?
A: 1.112

Q: What about the “Peptide Fluorescent Intensity: PLOD2” value [1] of the same substance?
A: 0.445

Q: What about the “Peptide Fluorescent Intensity: PLOD3” value [1] of the same substance?
A: 3.805

Q: What about the “Peptide Fluorescent Intensity: RAD23A” value [1] of the same substance?
A: 0.078

Q: What about the “Peptide Fluorescent Intensity: RAD23B” value [1] of the same substance?
A: 1.218

Q: And the “Peptide Fluorescent Intensity: SIRT1” value [1]?
A: 0.228

Q: What about the “Peptide Fluorescent Intensity: SIRT3” value [1] of the same substance?
A: 0.010

Q: And the “Peptide Fluorescent Intensity: TERT” value [1]?
A: 0.198

Q: And the “Peptide Fluorescent Intensity: COL1A1” value [3]?
A: 2.198

Q: And the “Peptide Fluorescent Intensity: COL1A2” value [3]?
A: 3.669

Q: And the “Peptide Fluorescent Intensity: COL3A1” value [3]?
A: 2.987

Q: What about the “Peptide Fluorescent Intensity: COL4A1” value [3] of the same substance?
A: 0.910

Q: What about the “Peptide Fluorescent Intensity: COL6A1” value [3] of the same substance?
A: 6.282

Q: What about the “Peptide Fluorescent Intensity: COL6A2” value [3] of the same substance?
A: 2.902

Q: What about the “Peptide Fluorescent Intensity: COL7” value [3] of the same substance?
A: 0.435

Q: What about the “Peptide Fluorescent Intensity: CTGF” value [3] of the same substance?
A: 0.076

Q: And the “Peptide Fluorescent Intensity: EGFR” value [3]?
A: 1.133

Q: What about the “Peptide Fluorescent Intensity: Fibronectin” value [3] of the same substance?
A: 1.407

Q: What about the “Peptide Fluorescent Intensity: IL-6” value [3] of the same substance?
A: 1.135

Q: And the “Peptide Fluorescent Intensity: MMP1” value [3]?
A: 1.991

Q: And the “Peptide Fluorescent Intensity: MMP2” value [3]?
A: 0.034

Q: And the “Peptide Fluorescent Intensity: PDGFR alpha subunit” value [3]?
A: 1.330

Q: What about the “Peptide Fluorescent Intensity: TIMP1” value [3] of the same substance?
A: 4.567

Q: What about the “Peptide Fluorescent Intensity: Tenascin (TNXB)” value [3] of the same substance?
A: 1.353

Q: And the “Peptide Fluorescent Intensity: βIG-H3 (TGFBI)” value [3]?
A: 2.069

Q: What about the “Peptide Fluorescent Intensity: FGF2” value [4] of the same substance?
A: 0.912

Q: And the “Peptide Fluorescent Intensity: GM-CSF (CSF2)” value [4]?
A: 0.014

Q: And the “Peptide Fluorescent Intensity: VEGFA” value [4]?
A: 0.798

Q: What about the “Peptide Fluorescent Intensity: Activin A beta subunit (INHBB)” value [5] of the same substance?
A: 0.261

Q: And the “Peptide Fluorescent Intensity: BMP1” value [5]?
A: 0.497

Q: And the “Peptide Fluorescent Intensity: Follistatin (FST)” value [5]?
A: 0.594

Q: What about the “Peptide Fluorescent Intensity: Inhibin (INHA)” value [5] of the same substance?
A: 0.264

Q: What about the “Peptide Fluorescent Intensity: LTBP (LTBP1)” value [5] of the same substance?
A: 0.652

Q: And the “Peptide Fluorescent Intensity: MMP2” value [5]?
A: 0.034

Q: And the “Peptide Fluorescent Intensity: YY1” value [5]?
A: 0.713

Q: And the “Peptide Fluorescent Intensity: CBP (CREBBP)” value [6]?
A: 0.375

Q: And the “Peptide Fluorescent Intensity: SAR1A” value [6]?
A: 1.905

Q: And the “Peptide Fluorescent Intensity: SP1” value [6]?
A: 0.590

Q: And the “Peptide Fluorescent Intensity: Smad1” value [6]?
A: 1.325

Q: What about the “Peptide Fluorescent Intensity: Smad2” value [6] of the same substance?
A: 0.824

Q: What about the “Peptide Fluorescent Intensity: Smad3” value [6] of the same substance?
A: 1.202

Q: And the “Peptide Fluorescent Intensity: Smad4” value [6]?
A: 0.374

Q: What about the “Peptide Fluorescent Intensity: Smad6” value [6] of the same substance?
A: 0.136

Q: And the “Peptide Fluorescent Intensity: Smad7” value [6]?
A: 0.357

Q: And the “Peptide Fluorescent Intensity: p38MAPK (MAPK14)” value [6]?
A: 0.594

Q: And the “Peptide Fluorescent Intensity: p300 (EP300)” value [6]?
A: 0.961

Q: And the “Peptide Fluorescent Intensity: TGFB” value (10 ppm peptide)?
A: 0.113

Q: And the “Peptide Fluorescent Intensity: TGFBR1” value (10 ppm peptide)?
A: 0.128

Q: What about the “Peptide Fluorescent Intensity: TGFBR3” value (10 ppm peptide) of the same substance?
A: 0.098

Q: And the “impact on anti-inflammatory genes” value (peptide alone, in words)?
A: does not impact anti-inflammatory genes significantly
